Measurements published in patent publication US5117052A, “Physiologically active substances, benastatins A and B, and production and use thereof” (priority 1990, dated 1992).
≈ marks a conversion by molar mass, not a printed value.

Experiments:
glutathione transferase = molecular target: T1, glutathione transferase (Rattus norvegicus, UniProt P04905); assay: Glutathione transferase inhibition activity (3,4-dichloronitrobenzene/glutathione, absorption at 345 nm); assay type: biochemical
T1 construct: obtained from a homogenate of rat liver; from tissue; host or cells: rat liver homogenate, partially purified by DEAE-cellulose column and ammonium sulfate salting-out
Procedure: The glutathione transferase inhibition activity was determined by a modified method based on the known method described in Biochemical and Biophysical Research Communications, 112, 980-985 (1983).
A test tube was charged with a solution mixture consisting of (a) 0.1 ml of 90 mM glutathione (reduction type), (b) 0.05 ml of 20 mM 3,4-dichloronitrobenzene, (c) 1.7 ml of 0.1M potassium phosphate buffer solution (pH 7.4) and (d) 0.1 ml of an aqueous solution containing the test compound. The solution mixture was heated to 37° C. for 3 minutes, and admixed with 0.05 ml of a glutathione transferase solution to effect a reaction at 37° C. for 30 minutes. The glutathione transferase solution employed was one which had been obtained from a homogenate of rat liver and which had been patially refined by means of a DEAE-cellulose column and of salting out-operation with ammonium sulfate.
After the completion of the reaction, the sample was measured for the light absorption (a) at 345 nm. At the same time, a control sample which was free of the test compound and which contained only the buffer solution was measured for the light absorption (b) at 345 nm.
The glutathione transferase inhibition activity was determined according to the formula: […]
IC50, which is the concentration of a test compound required for 50% inhibition, was recorded.

[1] = test system: murine spleen cells (LPS-induced lymphocyte blastogenesis); assay: Effect on LPS-induced murine lymphocyte blastogenesis in vitro (Test 4); assay type: cell-based, BALB/c mouse
Procedure: (§1) In lymphocyte blast formation reaction, use was made of benastatin B as a solution prepared in a manner, wherein benastatin B was dissolved in methanol and admixed with PBS(-), with the proviso that the concentration of methanol in the final solution was 0.5%.
(§2) (a) Effect on lymphocyte blast formation reaction
(§3) For the cultivation, use was made of RPMI 1640 culture medium supplemented with 20% bovine fetus serum, 25 mM Hepes buffer, 100 μg/ml streptomycin and 100 units/ml penicillin G. The cultivation was carried out in a microplate (COSTAR) with flat bottom and with 96 wells. As the mitogens, lipopolysaccharide (LPS) and concanavalin A (Con A) were used at the final concentrations of 100 μg/ml and 5 μg/ml, respectively.
(§4) Spleen cells were taken out from BALB/c mouse (female, at most 20 weeks old) to prepare a unicellular dispersion of spleen cells. This dispersion was subjected to a hyper shock treatment to remove erythrocytes therefrom. The resulting spleen cell sample was directly used in the test employing LPS. Alternatively, the spleen cell sample was filtered through Nylon Fiber (manufactured by Wako Jun-yaku Co., Ltd.) for removing […] therefrom, and then the cell sample was used in the test employing Con A.
(§5) Each well was charged with 0.2 ml of a test sample containing 2×10^5 murine spleen cells and the test compound at a predetermined concentration. The cultivation was effected for 72 hours. Before 8 hours from the termination of the cultivation, the wells each were charged with 37 KBq of [^3 H]-thymidine in order to determine the amount of thymidine taken into the cells. The effect of the test compound was estimated by comparing the test samples with the control samples, with respect to the amount of [^3 H]-thymidine taken into the cells.

[2] = test system: murine spleen cells (Con A-induced lymphocyte blastogenesis); assay: Effect on Con A-induced murine lymphocyte blastogenesis in vitro (Test 4); assay type: cell-based, BALB/c mouse; details: Mus musculus, 72 h
Procedure: as §1, §2, §3, §4, §5

[3] = test system: graft versus host reaction (GvH); assay: Effect on graft versus host reaction (GvH) in vivo; set-up: species or system mouse (C57BL/6 spleen cells into BDF1 mouse); details: for Spleen/body weight / Index (spleen/body weight; non induced = 1.00): subcutaneous, 3 days, day 7; for Index (spleen/body weight; non induced = 1.00): induced = 1.84
Description: In the graft versus host reaction (GvH), use was made of benastatin B dissolved in physiological saline.
(b) Effect on graft versus host reaction (GvH)
The effect on GvH was estimated according to a modified method based on the method described in M. Simonsen et al, "A study of the graft versus host reaction in transplantation to embryos, F1 hybrids, and irradiated animals", Ann. N.Y. Acad. Sci., 73, 834-841 ([…]).
Spleen cells were taken out from C57BL/6 mouse (female, 10 weeks old) to prepare a murine spleen cell sample containing 5×10^6 spleen cells according to the method as mentioned above. The spleen cell sample was transplanted into the abdominal cavity of BDF1 mouse (7 days old) as the F1 acceptor. The test compound at a predetermined concentration was subcutaneously injected over a period of time of 3 days including the initial day of said transplantation. After 7 days from the inital transplantation, measurements were made about the body weight and the spleen weight of the BDF1 mouse to calculate the ratio (mg/g) of spleen weight (mg) to body weight (g).

mouse = assay: Toxicity on administration to the abdominal cavity; assay type: in vivo; details: 100 mg/kg
Description: Benastatins A and B were each administered to the abdominal cavity of a mouse to examine the toxicity thereof.

[4] = test system: Bacillus cereus ATCC10702; assay: Agar dilution assay, minimum growth inhibition concentration; assay type: cell-based
Procedure: (§6) The minimum of microorganism growth inhibition concentrations of benastatins A and B were determined for various bacteria, east and fungi according to a conventional agar dilution assay method. It will be seen from Table 1 that benastatins A and B have a satisfactory antimicrobial activity, particularly against gram-positive bacteria, etc.

[5] = test system: Bacillus subtilis NRRL B-558; assay: as above; assay type: cell-based; details: NRRLB558
Procedure: as §6

Cochliobolus miyabeanus = assay: as above; assay type: cell-based; details: Bipolaris oryzae
Procedure: as §6

[6] = test system: Corynebacterium bovis 1810; assay: as above; assay type: cell-based
Procedure: as §6

[7] = test system: Cryptococcus neoformans F-10; assay: as above; assay type: cell-based; details: F10
Procedure: as §6

Micrococcus luteus FDA16 = assay: as above; assay type: cell-based
Procedure: as §6

[8] = test system: Staphylococcus aureus MS9610; assay: as above; assay type: cell-based
Procedure: as §6

[9] = test system: Staphylococcus aureus Smith; assay: as above; assay type: cell-based
Procedure: as §6

[10] = test system: Staphylococcus aureus No. 5 (MRSA); assay: as above; assay type: cell-based; details: read-out: Minimum growth-inhibition concentration
[11] = test system: Staphylococcus aureus No. 17 (MRSA); assay: as above; assay type: cell-based; details: read-out: Minimum growth-inhibition concentration
Escherichia coli NIHJ = assay: as above; assay type: cell-based; details: Escherichia coli, read-out: Minimum growth-inhibition concentration
[12] = test system: Shigella dysenteriae JS11910; assay: as above; assay type: cell-based; details: JS11910, read-out: Minimum growth-inhibition concentration
Salmonella typhi T-63 = assay: as above; assay type: cell-based; details: Salmonella enterica
Proteus rettgeri GN311 = assay: as above; assay type: cell-based; details: Providencia rettgeri, GN311, read-out: Minimum growth-inhibition concentration
[13] = test system: Pseudomanas aeruginosa A3; assay: as above; assay type: cell-based; details: read-out: Minimum growth-inhibition concentration
[14] = test system: Klebsiella pneumoniae PCI602; assay: as above; assay type: cell-based; details: Klebsiella pneumoniae, PCI602, read-out: Minimum growth-inhibition concentration
[15] = test system: Mycabacterium smegmatis ATCC607; assay: as above; assay type: cell-based; details: read-out: Minimum growth-inhibition concentration
Candida tropicalis F-1 = assay: as above; assay type: cell-based; details: Candida tropicalis, F1, read-out: Minimum growth-inhibition concentration
[16] = test system: Saccharomyces cerevisiae F-7; assay: as above; assay type: cell-based; details: Saccharomyces cerevisiae, F7, read-out: Minimum growth-inhibition concentration
Pyricularia oryzae = assay: microbe, parasite or virus in culture; assay type: cell-based; details: read-out: Minimum growth-inhibition concentration
Aspergillus niger F-16 = assay: Agar dilution assay, minimum growth inhibition concentration; assay type: cell-based; details: Aspergillus niger, F16, read-out: Minimum growth-inhibition concentration
[17] = Mus musculus, Lymphocyte, 72 h, read-out: Stimulation index LPS
[18] = read-out: Stimulation index Con A

T1 sequence (P04905 2-218 limits assumed): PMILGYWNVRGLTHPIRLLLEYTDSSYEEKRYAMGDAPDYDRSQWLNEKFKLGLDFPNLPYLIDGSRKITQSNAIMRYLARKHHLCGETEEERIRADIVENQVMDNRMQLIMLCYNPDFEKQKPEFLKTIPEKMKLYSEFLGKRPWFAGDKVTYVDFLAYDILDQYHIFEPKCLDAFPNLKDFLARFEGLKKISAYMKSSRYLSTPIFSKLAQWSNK

## CCCCCc1cc2c(c(O)c1C(=O)O)-c1cc3c(c(O)c1CC2)C(=O)c1c(O)cc(O)cc1C3(C)C [Benastatin B, benastatin B]
Glutathione transferase
  IC50: 1830 nM
[1]; [17]
  activity at 6.25 µg/mL: 138%
  activity at 12.5 µg/mL: 58.9%
  activity at 50 µg/mL: 0.4%
[1]; Mus musculus, Lymphocyte, 72 h, 3.13 μg/ml, control = 100, read-out: Stimulation index LPS
  activity at 3.13 µg/mL: 148%
[1]; Mus musculus, Lymphocyte, 72 h, 25 μg/ml, control = 100, read-out: Stimulation index LPS
  activity at 25 µg/mL: 0.2%
[1]; Mus musculus, Lymphocyte, 72 h, 100 μg/ml, control = 100, read-out: Stimulation index LPS
  activity at 100 µg/mL: 0.2%
[1]; Mus musculus, Lymphocyte, 72 h, read-out: concentration that significantly suppresses LPS-induced lymphocyte blast formation
  minimal effective concentration: ≥ 12.5 µg/mL
[1]; low concentration
  effect on LPS-induced lymphocyte blast formation at a low concentration: potentiates
[2]; 3.13 μg/ml, control = 100, read-out: Stimulation index Con A
  activity at 3.13 µg/mL: 106%
[2]; 25 μg/ml, control = 100, read-out: Stimulation index Con A
  activity at 25 µg/mL: 1%
[2]; 100 μg/ml, control = 100, read-out: Stimulation index Con A
  activity at 100 µg/mL: 0.9%
[2]; [18]
  activity at 6.25 µg/mL: 12.6%
  activity at 12.5 µg/mL: 26.8%
  activity at 50 µg/mL: 1%
[2]; read-out: concentration that significantly suppresses Con A-induced lymphocyte blast formation
  minimal effective concentration: ≥ 6.25 µg/mL
[3]; 0.5 mg/kg
  Spleen/body weight: 12.5 ± 2.2 mg/kg
  Index (spleen/body weight; non induced = 1.00): 2.78
[3]; 5 mg/kg
  Spleen/body weight: 11.5 ± 0.8 mg/kg
  Index (spleen/body weight; non induced = 1.00): 2.56
[3]; 50 mg/kg
  Spleen/body weight: 10.6 ± 1.3 mg/kg
  Index (spleen/body weight; non induced = 1.00): 2.36
[3]; various amounts, strongest in a lower amount
  effect on GvH: significantly promotes GvH
mouse
  Toxicity: No toxicity was observed
[4]
  MIC: 3.12 µg/mL (≈ 6.21 µM)
[5]
  MIC: 3.12 µg/mL (≈ 6.21 µM)
Cochliobolus miyabeanus
  MIC: > 25 µg/mL
[6]
  MIC: 3.12 µg/mL (≈ 6.21 µM)
[7]
  MIC: 50 µg/mL (≈ 99.5 µM)
Micrococcus luteus FDA16
  MIC: 3.12 µg/mL (≈ 6.21 µM)
[8]
  MIC: 3.12 µg/mL (≈ 6.21 µM)
[9]
  MIC: 3.12 µg/mL (≈ 6.21 µM)
[10]
  MIC: 3.12 µg/mL (≈ 6.21 µM)
[11]
  MIC: 3.12 µg/mL (≈ 6.21 µM)
Escherichia coli NIHJ
  MIC: 100 µg/mL (≈ 199 µM)
[12]
  MIC: > 50 µg/mL
Salmonella typhi T-63
  MIC: > 50 µg/mL
Proteus rettgeri GN311
  MIC: 50 µg/mL (≈ 99.5 µM)
[13]
  MIC: 50 µg/mL (≈ 99.5 µM)
[14]
  MIC: > 50 µg/mL
[15]
  MIC: 12.5 µg/mL (≈ 24.9 µM)
Candida tropicalis F-1
  MIC: > 50 µg/mL
[16]
  MIC: > 50 µg/mL
Pyricularia oryzae
  MIC: 50 µg/mL (≈ 99.5 µM)
Aspergillus niger F-16
  MIC: > 100 µg/mL
